Measured values reported in patent publication US9017725B2, “Topical drug delivery systems for ophthalmic use” (Aurinia Pharmaceuticals Inc., priority 2009, dated 2015).
In brackets after ≈: the same amount, converted by molar mass.

Assay: Aqueous solubility and solubility in mixed nanomicellar formulation
Format: physicochemical
Conditions: for solubility: mixed nanomicellar formulation, aqueous with cosolvent or surfactant or cyclodextrin
Description: The ethanolic solution was evaporated under vacuum to get a thin film near-solid matter. Deionized water, 25 mL, was added to the thin film near-solid matter and sonicated for approximately 20 min to ensure complete formation of mixed micelles. The prepared 2× formulation was stored at room temperature.

Compound | improvement of solubility (mixed nanomicellar formulation versus aqueous solubility) | solubility | improvement of solubility (mixed nanomicellar formulation (4 mg/mL) versus aqueous solubility)
C[C@@H]1C[C@H]2[C@@H]3CCC4=CC(=O)C=C[C@]4(C)[C@@]3(F)[C@@H](O)C[C@]2(C)[C@@]1(O)C(=O)CO [dexamethasone] | about 6.2 fold | 1 mg/mL (≈ 2.55 mM) | 
CO[C@H]1C[C@@H]2CC[C@@H](C)[C@@](O)(O2)C(=O)C(=O)N2CCCC[C@H]2C(=O)O[C@H]([C@H](C)C[C@@H]2CC[C@@H](O)[C@H](OC)C2)CC(=O)[C@H](C)/C=C(\C)[C@@H](O)[C@@H](OC)C(=O)[C@H](C)C[C@H](C)/C=C/C=C/C=C/1C [rapamycin] |  | 4 mg/mL (≈ 4.38 mM) | up to 2000 fold
